Data from patent US20240262803A1, “COMPOUNDS, COMPOSITIONS AND METHODS OF TREATING DISORDERS” (Chungdu Anticancer Bioscience Ltd, priority 2021, published 2024).
Read-outs that look alike come from different tables or passages of the source.

Key:
Format in all cases: cell-based
[1] = system: colon cancer cell line SW460; assay: MTT assay of cellular proliferation, SW460; conditions: Homo sapiens, SW480; read-out: EC50: Concentration that inhibits 50% of proliferation
Procedure: (§1) Six lung cancer cell lines (NCI-H23, NCI-H460, NCI-H596, NCI-H2170, Calu-6 and A549), two colon cancer cell lines (HCT116 and SW460), one breast cancer cell line MDA-MB-231, one gastric cancer cell line NCI-N87, one prostate cancer cell line DU145, one cervical cancer cell line Hela, and one glioblastoma cell line T98G were obtained from ATCC. The T2 HCC cell line was derived from a mouse liver cancer model initiated by a transgene of MYC (Reference). All cell lines were cultured in DMEM (Gibco, Cleveland, TN, USA) supplemented with 5% fetal bovine serum (Gibco), penicillin (100 U/mL)-streptomycin (100 μg/mL) (Gibco, Cat. No. 15140-122), 2 mM L-glutamine (Gibco, 200 mM solution, Cat. No. 25030081), and 1 mM sodium pyruvate (Gibco, 100 mM solution, Cat. No. 11360070) at 37° C. in a humidified incubator that was maintained at 5% CO2.
(§2) The MTT assay measures cellular metabolic activity as a proxy for cell viability and involves the conversion of the water-soluble yellow dye MTT [3-(4,5-dimethylthiazol-2-yl)-2,5-diphenyltetrazolium bromide] into an insoluble purple formazan by the action of mitochondrial reductase. Formazan is then solubilized and its concentration is determined by measuring the optical density (OD) value at a wavelength of 570 nm. The value is in proportional to the number of live cells with excellent linearity up to ˜10^6 cells per well. The MTT assay was used to determine the EC50 value, the concentration of a compound that leads to 50% inhibition of cellular proliferation. Briefly, cells were split when growing to the mid-Log phase. Cells in 100 μL of culture medium were seeded into each well of 96-well microplates and cultivated for 15˜24 hours to reach a confluence of 20˜30% and were then exposed to drugs at concentrations ranging from 1 nM to 10 μM. At the endpoint, 20 μL of a MTT stock solution in DMSO (5 mg/mL) was added to each well that contains […] of DMEM. The microplates were left in the cell culture incubator for 3˜4 h before subjected to solubilization and determination of formazan at A570 in a microplate reader (BioTek ELX808iu). […] Therefore, these compounds might hold a broad utility in the treatment of a large variety of human malignancies.

RPEMYC^H2B-GFP cells [2] = assay: Mechanism-informed phenotypic screening assay (mitotic arrest, polyploidy; GE IN-Cell Analyzer 2000); conditions: 20 nM to 20 μM, 24, 48 or 72 hours, read-out: Mitotic Arrest (≥5%)
[3] = system: gastric cancer cell line NCI-N87; assay: Minimal effective concentration that elicits polyploidy, NCI-N87; conditions: Homo sapiens, read-out: MECP: Minimal effective concentration that elicits polyploidy
[4] = system: breast cancer cell line MDA-MB-231; assay: Minimal effective concentration that elicits polyploidy, MDA-MB-231; conditions: Homo sapiens, read-out: MECP: Minimal effective concentration that elicits polyploidy
[5] = system: liver cancer cell line T2 HCC; assay: MTT assay of cellular proliferation, T2 HCC; conditions: Mus musculus, read-out: EC50: Concentration that inhibits 50% of proliferation
Procedure: as §1, §2

[6] = system: cervical cancer cell line Hela; assay: Minimal effective concentration that elicits polyploidy, Hela; conditions: Homo sapiens, read-out: MECP: Minimal effective concentration that elicits polyploidy
[7] = system: colon cancer cell line HCT116; assay: Minimal effective concentration that elicits polyploidy, HCT116; conditions: Homo sapiens, HCT-116, read-out: MECP: Minimal effective concentration that elicits polyploidy
[8] = system: gastric cancer cell line NCI-N87; assay: MTT assay of cellular proliferation, NCI-N87; conditions: Homo sapiens, read-out: EC50: Concentration that inhibits 50% of proliferation
Procedure: as §1, §2

[9] = system: lung cancer cell line NCI-H23; assay: MTT assay of cellular proliferation, NCI-H23; conditions: Homo sapiens, read-out: EC50: Concentration that inhibits 50% of proliferation
Procedure: as §1, §2

[10] = system: colon cancer cell line HCT116; assay: MTT assay of cellular proliferation, HCT116; conditions: Homo sapiens, HCT-116, read-out: EC50: Concentration that inhibits 50% of proliferation
Procedure: as §1, §2

[11] = system: breast cancer cell line MDA-MB-231; assay: MTT assay of cellular proliferation, MDA-MB-231; conditions: Homo sapiens, read-out: EC50: Concentration that inhibits 50% of proliferation
Procedure: as §1, §2

RPEMYC^H2B-GFP cells [12] = assay: Mechanism-informed phenotypic screening assay (mitotic arrest, polyploidy; GE IN-Cell Analyzer 2000); conditions: 20 nM to 20 μM, 24, 48 or 72 hours, read-out: Min. Effective conc. for polyploidy (≥5%)
Procedure: We have Previously Developed a Mechanism-Informed Phenotypic Screening Assay to identify novel antimitotic agents (Li et al. 2019). Equipped with a prior understanding of the versatile functions of the chromosomal passenger protein (CPP) complex in orchestrating karyokinesis and cytokinesis, the screening assay is to score for phenotypes typically seen when the CPP complex is disabled. Specifically, the parameters for a positive hit are a temporary elevation of mitotic index (MI) at 24 hours of drug treatment and an accumulation of polyploid cells at 48 hours of drug treatment, indicative of mitotic arrest and cytokinetic failure respectively. These parameters exclude compounds that elicit only a prolonged arrest of cells in mitosis, a phenotype typically provoked by spindle toxins. The screening procedure is briefly summarized here. RPEMYC^H2B-GFP cells engineered to express a Histone 2B-EGFP fusion protein were passaged as batches of 96-well plates, 18-24 hours before exposure to the chemical compounds of the present disclosure at concentrations from 20 nM to 20 μM. At 24, 48 or 72 hours after initiation of treatment, cells were analyzed for either an arrest in mitosis or a change in DNA content by GE IN-Cell Analyzer 2000. As set forth in table 2 below, a value of greater than or equal to […] and less than or equal to 1.0 μM is marked e “A”; a value greater than […] and less than or equal to 10.0 μM is marked “B”; a value greater than 10.0 μM and less than or equal to 30.0 μM is marked “C”; and a value greater than 30.0 μM is marked “D.”

[13] = system: lung cancer cell line A549; assay: MTT assay of cellular proliferation, A549; conditions: Homo sapiens, read-out: EC50: Concentration that inhibits 50% of proliferation
Procedure: as §1, §2

[14] = system: cervical cancer cell line Hela; assay: MTT assay of cellular proliferation, Hela; conditions: Homo sapiens, read-out: EC50: Concentration that inhibits 50% of proliferation
Procedure: as §1, §2

[15] = system: lung cancer cell line A549; assay: Minimal effective concentration that elicits polyploidy, A549; conditions: Homo sapiens, read-out: MECP: Minimal effective concentration that elicits polyploidy
[16] = system: liver cancer cell line T2 HCC; assay: Minimal effective concentration that elicits polyploidy, T2 HCC; conditions: Mus musculus, read-out: MECP: Minimal effective concentration that elicits polyploidy
SW480 = assay: Minimal effective concentration that elicits polyploidy, SW480; conditions: Homo sapiens, read-out: MECP: Minimal effective concentration that elicits polyploidy
[17] = system: lung cancer cell line NCI-H23; assay: Minimal effective concentration that elicits polyploidy, NCI-H23; conditions: Homo sapiens, read-out: MECP: Minimal effective concentration that elicits polyploidy

Structure (SMILES) | EC50 [1] [nM] | minimal effective concentration (RPEMYC^H2B-GFP cells [2]) [µM] | minimal effective concentration [3] [µM] | minimal effective concentration [4] [µM] | EC50 [5] [nM] | minimal effective concentration [6] [µM] | minimal effective concentration [7] [µM] | EC50 [8] [nM] | EC50 [9] [nM] | EC50 [10] [nM] | EC50 [11] [nM] | minimal effective concentration (RPEMYC^H2B-GFP cells [12]) [µM] | EC50 [13] [nM] | EC50 [14] [nM] | minimal effective concentration [15] [µM] | minimal effective concentration [16] [µM] | minimal effective concentration (SW480) [µM] | minimal effective concentration [17] [µM]
CNC(=O)c1cc(Oc2ncccc2-c2ccnc(C)c2)cc(OC(F)(F)F)c1 [Compound 39, N-methyl-3-((2′-methyl-[3,4′-bipyridin]-2-yl)oxy)-5-(trifluoromethoxy)benzamide] | 1 to 1000 | 1 | 0.001 to 1 | 0.001 to 1 | 1 to 1000 | 0.001 to 1 | 0.001 to 1 | 1 to 1000 | 1 to 1000 | 1 to 1000 | 1 to 1000 | 1 | 1 to 1000 | 1 to 1000 | 0.001 to 1 | 0.001 to 1 | 0.001 to 1 | 0.001 to 1
COc1cc(OC)cc(Oc2ncccc2-c2ccncc2)c1 [Compound 14, 2-(3,5-dimethoxyphenoxy)-3,4′-bipyridine] | 1 to 1000 | 1 | 0.001 to 1 | 0.001 to 1 | 1 to 1000 | 0.001 to 1 | 0.001 to 1 | 1 to 1000 | 1 to 1000 | 1 to 1000 | 1 to 1000 | 1 | 1 to 1000 | 1 to 1000 | 0.001 to 1 | 0.001 to 1 | 0.001 to 1 | 0.001 to 1
COC(=O)c1cc(OC)cc(Oc2nccnc2-c2cccnc2)c1 [Compound 52, methyl 3-methoxy-5-((3-(pyridin-3-yl)pyrazin-2-yl)oxy)benzoate] | 1 to 1000 | 1 | 0.001 to 1 | 0.001 to 1 | 1 to 1000 | 0.001 to 1 | 0.001 to 1 | 1 to 1000 | 1 to 1000 | 1 to 1000 | 1 to 1000 | 1 | 1000 to 10000 | 1 to 1000 | 0.001 to 1 | 0.001 to 1 | 0.001 to 1 | 0.001 to 1
CNC(=O)c1cc(OC)cc(Oc2ncccc2-c2ccnc(OC)c2)c1 [Compound 27, 3-methoxy-5-((2′-methoxy-[3,4′-bipyridin]-2-yl)oxy)-N-methylbenzamide] | 1 to 1000 | 1 | 0.001 to 1 | 0.001 to 1 | 1 to 1000 | 0.001 to 1 | 0.001 to 1 | 1 to 1000 | 1 to 1000 | 1 to 1000 | 1 to 1000 | 1 | 1 to 1000 | 1 to 1000 | 0.001 to 1 | 0.001 to 1 | 0.001 to 1 | 0.001 to 1
